The values that follow come from US7125990B2, “Imidazolyl derivatives as corticotropin releasing factor inhibitors” (Bristol-Myers Squibb COmpany, priority 2001, dated 2006).

A word on the Ki: it is a measure of affinity in units of concentration, obtained from inhibition or displacement.

SMILES strings stand for the structures.

The target of the assay is T1, CRF1 receptors (Homo sapiens, UniProt P34998).
T1 construct: endogenous in cells; host or cells: IMR-32 cells, transformed with 2.5 µM 5'-bromo-2'-deoxyuridine for 10 days; membrane preparation
T1 sequence (P34998 24-415): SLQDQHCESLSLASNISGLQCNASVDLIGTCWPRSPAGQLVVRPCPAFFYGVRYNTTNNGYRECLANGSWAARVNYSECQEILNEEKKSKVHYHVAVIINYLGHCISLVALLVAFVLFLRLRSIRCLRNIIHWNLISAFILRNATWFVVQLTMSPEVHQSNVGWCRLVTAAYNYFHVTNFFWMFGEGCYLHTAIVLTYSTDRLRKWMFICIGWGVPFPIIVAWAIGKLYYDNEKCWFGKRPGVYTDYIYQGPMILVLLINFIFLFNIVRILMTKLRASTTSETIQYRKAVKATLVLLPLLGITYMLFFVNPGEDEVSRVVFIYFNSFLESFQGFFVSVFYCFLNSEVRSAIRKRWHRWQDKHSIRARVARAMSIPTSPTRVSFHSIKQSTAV
Briefly: CRF1 receptor radioligand binding assay ([125I]-oCRF competition, IMR-32 cell membranes). As to conditions: IMR-32 cell membranes, [125I]-oCRF 100 pM; read-out: Ki (CRF-1R). Put shortly:
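Buffer: Tris pH 7.2 with MgCl2, BSA, Triton X-100, aprotinin, leupeptin; reaction stopped with ice-cold wash and filtered. Nonspecific binding set with 10 μM oCRF.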
With `CCCN(Cc1c(C(F)(F)F)nc2n1CCCN2c1c(C)cc(C)cc1Cl)CC1CCC1` [Example 111, [8-(2-Chloro-4,6-dimethyl-phenyl)-2-trifluoromethyl-5,6,7,8-tetrahydro-imidazo[1,2-a]pyrimidin-3-ylmethyl]-cyclobutylmethyl-propyl-amine], the Ki was less than 1000 nM.

As to `CCc1nc2n(c1C(=O)N(CC)CC1CC1)CCN2c1c(C)cc(C)cc1C` [Example 10, 2-Ethyl-7-(2,4,6-trimethyl-phenyl)-6,7-dihydro-5H-imidazo[1,2-a]imidazole-3-carboxylic acid cyclopropylmethyl-(ethyl)-amide], the Ki is less than 100 nM. `CCCN(CC1CC1)C(=O)c1c(CC)nc2n1CCCN2c1c(C)cc(C)cc1C` [Example 54, 2-Ethyl-8-(2,4,6-trimethyl-phenyl)-5,6,7,8-tetrahydro-imidazo[1,2-a]pyrimidine-3-carboxylic acid cyclopropylmethyl-propyl-amide]: the Ki was less than 10000 nM. Turning to `CCCN(CC1CC1)C(=O)c1c(CC)nc2n1CCN2c1c(C)cc(C)cc1Br` [Example 46, 7-(2-Bromo-4,6-dimethyl-phenyl)-2-ethyl-6,7-dihydro-5H-imidazo[1,2-a]imidazole-3-carboxylic acid cyclopropylmethyl-propyl-amide], the Ki is less than 10000 nM. In the case of `CCN(Cc1c(C(F)(F)F)nc2n(-c3c(C)cc(C)cc3C)c3ccccc3n12)CC1CC1` [Example 154, Cyclopropylmethyl-ethyl-[2-trifluoromethyl-8-(2,4,6-trimethyl-phenyl)-8H-1,3a,8-triaza-cyclopenta[α]inden-3-ylmethyl]-amine], the Ki was less than 100 nM. Consider `CCCN(Cc1ccc(Cl)cc1)Cc1c(C(F)(F)F)nc2n1CCCN2c1c(C)cc(C)cc1C` [Example 94, (4-Chloro-benzyl)-propyl-[2-trifluoromethyl-8-(2,4,6-trimethyl-phenyl)-5,6,7,8-tetrahydro-imidazo[1,2-a]pyrimidin-3-ylmethyl]-amine], for which the Ki was less than 1000 nM. In the case of `Cc1cc(C)c(-n2c3ccccc3n3c(CN(CCc4ccccc4)CC(F)(F)F)c(C(F)(F)F)nc23)c(C)c1` [Example 171, Phenethyl-(2,2,2-trifluoro-ethyl)-[2-trifluoromethyl-8-(2,4,6-trimethyl-phenyl)-8H-1,3a,8-triaza-cyclopenta[α]inden-3-ylmethyl]-amine], the Ki was less than 1000 nM.

As to `CCCN(Cc1ccccc1)Cc1c(C(F)(F)F)nc2n1CCCN2c1c(C)cc(C)cc1Cl` [Example 130, Benzyl-[8-(2-chloro-4,6-dimethyl-phenyl)-2-trifluoromethyl-5,6,7,8-tetrahydro-imidazo[1,2-a]pyrimidin-3-ylmethyl]-propyl-amine], the Ki was less than 1000 nM. Then `CC(C)c1ccc(-n2c3ccccc3n3c(CN(CCC(F)(F)F)Cc4ccccc4)c(C(F)(F)F)nc23)c(Br)c1` [Example 202, Benzyl-[8-(2-bromo-4-isopropyl-phenyl)-2-trifluoromethyl-8H-1,3a,8-triaza-cyclopenta[α]inden-3-ylmethyl]-(3,3,3-trifluoro-propyl)-amine], with less than 10000 nM; and `CCCN(CCC1CC1)C(=O)c1c(CC)nc2n1CCN2c1c(C)cc(C)cc1C` [Example 20, 2-Ethyl-7-(2,4,6-trimethyl-phenyl)-6,7-dihydro-5H-imidazo[1,2-a]imidazole-3-carboxylic acid (2-cyclopropyl-ethyl)-propyl-amide], with less than 1000 nM. Take `C=C(C)CN(CC)Cc1c(C(F)(F)F)nc2n1CCCN2c1c(C)cc(C)cc1Cl` [Example 106, [8-(2-Chloro-4,6-dimethyl-phenyl)-2-trifluoromethyl-5,6,7,8-tetrahydro-imidazo[1,2-a]pyrimidin-3-ylmethyl]-ethyl-(2-methyl-allyl)-amine]: the Ki is less than 1000 nM.

`Cc1cc(C)c(N2CCCn3c2nc(C(F)(F)F)c3CN2CCSCC2)c(Cl)c1` [Example 98, 8-(2-Chloro-4,6-dimethyl-phenyl)-3-thiomorpholin-4-ylmethyl-2-trifluoromethyl-5,6,7,8-tetrahydro-imidazo[1,2-a]pyrimidine]: the Ki was less than 1000 nM.

For the compound `CCCN(Cc1c(C(F)(F)F)nc2n1CCCN2c1c(C)cc(C)cc1Cl)CC1CC1` [Example 96, [8-(2-Chloro-4,6-dimethyl-phenyl)-2-trifluoromethyl-5,6,7,8-tetrahydro-imidazo[1,2-a]pyrimidin-3-ylmethyl]-cyclopropylmethyl-propyl-amine], the Ki is less than 100 nM.

Regarding `Cc1cc(C)c(-n2c3ccccc3n3c(CN(C)Cc4ccccc4)c(C(F)(F)F)nc23)c(C)c1` [Example 167, Benzyl-methyl-[2-trifluoromethyl-8-(2,4,6-trimethyl-phenyl)-8H-1,3a,8-triaza-cyclopenta[α]inden-3-ylmethyl]-amine], the Ki was less than 1000 nM. The result for `Cc1cc(C)c(N2CCCn3c2nc(C(F)(F)F)c3CN(C)CCc2ccccc2)c(C)c1` [Example 66, Methyl-phenethyl-[2-trifluoromethyl-8-(2,4,6-trimethyl-phenyl)-5,6,7,8-tetrahydro-imidazo[1,2-a]pyrimidin-3-ylmethyl]-amine] reads less than 1000 nM. As for `CCC(CC)NCc1c(C)nc2n(-c3c(C)cc(C)cc3Cl)c3ncccc3n12` [Example 279, [8-(2-Chloro-4,6-dimethyl-phenyl)-2-methyl-8H-1,3a,7,8-tetraaza-cyclopenta[α]inden-3-ylmethyl]-(1-ethyl-propyl)-amine], the Ki was less than 10000 nM.

In the case of `CCN(CCc1ccccc1)Cc1c(C(F)(F)F)nc2n(-c3ccc(C(C)C)cc3Br)c3ccccc3n12` [Example 196, [8-(2-Bromo-4-isopropyl-phenyl)-2-trifluoromethyl-8H-1,3a,8-triaza-cyclopenta[α]inden-3-ylmethyl]-ethyl-phenethyl-amine], the Ki was less than 1000 nM. Consider `Cc1cc(C)c(-n2c3ncccc3n3c(CN(CCC(F)(F)F)CC4CC4)c(C(F)(F)F)nc23)c(C)c1` [Example 213, Cyclopropylmethyl-[2-trifluoromethyl-8-(2,4,6-trimethyl-phenyl)-8H-1,3a,7,8-tetraaza-cyclopenta[α]inden-3-ylmethyl]-(3,3,3-trifluoro-propyl)-amine], for which the Ki was less than 100 nM. Regarding `Cc1cc(C)c(N2CCCn3c2nc(C(F)(F)F)c3CN(CCc2ccccc2)CC(F)(F)F)c(Cl)c1` [Example 119, [8-(2-Chloro-4,6-dimethyl-phenyl)-2-trifluoromethyl-5,6,7,8-tetrahydro-imidazo[1,2-a]pyrimidin-3-ylmethyl]-phenethyl-(2,2,2-trifluoro-ethyl)-amine], the Ki is less than 1000 nM. Regarding `FC(F)(F)c1nc2n(-c3ccc(Cl)cc3Cl)c3ccccc3n2c1CN(CC1CC1)CC1CC1` [Example 177, Bis-cyclopropylmethyl-[8-(2,4-dichloro-phenyl)-2-trifluoromethyl-8H-1,3a,8-triaza-cyclopenta[α]inden-3-ylmethyl]-amine], the Ki was less than 1000 nM. For the compound `Cc1cc(C)c(N2CCCn3c2nc(C(F)(F)F)c3CN(CCc2ccccc2)CC(F)(F)F)c(C)c1` [Example 82, Phenethyl-(2,2,2-trifluoro-ethyl)-[2-trifluoromethyl-8-(2,4,6-trimethyl-phenyl)-5,6,7,8-tetrahydro-imidazo[1,2-a]pyrimidin-3-ylmethyl]-amine], the Ki is less than 100 nM. On to `CCCN(CCc1ccccc1)Cc1c(C(F)(F)F)nc2n(-c3c(C)cc(C)cc3C)c3ccccc3n12` [Example 161, Phenethyl-propyl-[2-trifluoromethyl-8-(2,4,6-trimethyl-phenyl)-8H-1,3a,8-triaza-cyclopenta[α]inden-3-ylmethyl]-amine], for which the Ki is less than 1000 nM.

With `CCCN(CC1CC1)C(=O)c1c(C)nc2n1CCN2c1c(C)cc(C)cc1C` [Example 1, 2-Methyl-7-(2,4,6-trimethyl-phenyl)-6,7-dihydro-5H-imidazo[1,2-α]imidazole-3-carboxylic acid cyclopropylmethyl-propyl-amide], the Ki is less than 1000 nM.

Regarding `CCCCN(CC)C(=O)c1c(CC)nc2n(-c3c(C)cc(C)cc3C)c(Cl)cn12` [Example 291, 6-Chloro-2-ethyl-7-(2,4,6-trimethylphenyl)-7H-imidazo[1,2-a]imidazole-3-carboxylic acid N-butyl-N-ethylamide], the Ki is less than 100 nM.

Consider `Cc1cc(C)c(-n2c3ncccc3n3c(CN(CCC4CC4)CCC(F)(F)F)c(C(F)(F)F)nc23)c(C)c1` [Example 225, (2-Cyclopropyl-ethyl)-[2-trifluoromethyl-8-(2,4,6-trimethyl-phenyl)-8H-1,3a,7,8-tetraaza-cyclopenta[α]inden-3-ylmethyl]-(3,3,3-trifluoro-propyl)-amine], for which the Ki was less than 1000 nM. On to `C=CCN(CC=C)Cc1c(C(F)(F)F)nc2n(-c3c(C)cc(C)cc3C)c3ccccc3n12` [Example 160, Diallyl-[2-trifluoromethyl-8-(2,4,6-trimethyl-phenyl)-8H-1,3a,8-triaza-cyclopenta[α]inden-3-ylmethyl]-amine], for which the Ki was less than 1000 nM. Turning to `CCCCN(CC)C(=O)c1c(CC)nc2n1CCN2c1c(C)cc(C)cc1C` [Example 15, 2-Ethyl-7-(2,4,6-trimethyl-phenyl)-6,7-dihydro-5H-imidazo[1,2-a]imidazole-3-carboxylic acid butyl-ethyl-amide], the Ki was less than 1000 nM. In the case of `CCCN(Cc1c(CC)nc2n(-c3c(C)cc(C)cc3C)c3ccc(F)cc3n12)CC1CC1` [Example 149, Cyclopropylmethyl-[2-ethyl-5-fluoro-8-(2,4,6-trimethyl-phenyl)-8H-1,3a,8-triaza-cyclopenta[α]inden-3-ylmethyl]-propyl-amine], the Ki was less than 1000 nM.
